One test deals with 1321-N1 cells. The test can be described thus: Intracellular Ca2+ mobilization by Gq-coupled receptor agonists (FLIPR, Fluo-4), 1321-N1. The test is classed as cell-based, human. To be noted: 1321-N1, FLIPR, Fluo-4, 3 min, n = 3. How it is done:
(§1) Cells were seeded in 96-well plates (clear bottom and black wall) at 2.5 × 10^4 cells per well on the day before assay. The cells (~80–100% confluence) were then washed with Hank’s balanced salt solution (HBSS) and aspirated, followed by addition of 100 μL of FLIPR labeling dye (containing Fluo-4 and probenecid in HBSS) to each well before incubation at 37 °C for 1 h. Finally, the 96-well plate containing the labeled cells was transferred to the FLIPR (Molecular Devices, San Jose, CA, USA), and 50 μL of HBSS (with or without agonists) was added to each well. The fluorescent signals that reflect the intracellular Ca^2+ transients were monitored by an excitation wavelength of 488 nm, and detection was undertaken with an emission wavelength from 510 to 570 nm for 3 min upon the drug treatments, as described previously.

The test system of a further test is primary astrocytes. In words: Intracellular Ca2+ mobilization by Gq-coupled receptor agonists (FLIPR, Fluo-4), primary cortical astrocytes. It is filed as cell-based, mouse. The conditions noted are these: n = 4. How it is done: HEK293, U87-MG, 1321N1, SK-N-SH, and SK-N-MC cells were cultured in MEM supplemented with 10% (vol/vol) fetal bovine serum (FBS), 50 U/mL penicillin, and 50 μg/mL streptomycin. Primary astrocyte cultures were prepared from the cerebral cortexes of neonatal mice (P2). The cerebral hemispheres were isolated and transferred to ice-cold Hank’s buffer, and the meninges were carefully removed. Tissues were then minced into approximately 1 mm pieces, triturated, filtered through a 60 µm nylon screen, and collected by centrifugation at approximately 3000× g for 5 min. The cell pellets were dispersed with a pipette and resuspended in a medium containing 10% (vol/vol) FBS in low-glucose Dulbecco’s modified Eagle’s medium. After trituration, the cells were filtered through a 10 µm screen and then plated into 6-well plates at a density of 3 × 10^5 cells/mL and cultured for about 10 days. The medium was replaced twice per week. Dibutyryl cyclic adenosine monophosphate (DBcAMP; 0.15 mM, Sigma, St Louis, MO, USA) was added to induce differentiation when the cells were grown to 95% confluence. Primary mouse cortical neuronal cultures were obtained from E16 ICR mouse embryos. Briefly, cerebral cortices were removed from mouse embryos and mechanically dissociated in PBS with glucose (18 mM). Neurons were then seeded onto poly-L-lysine (1 mg/mL)-coated 96-well plates at 5 × 10^4 cells/well in a B27 Plus Neuronal culture system (Thermo Fisher Scientific), supplemented with 2 mM glutamine, 5 μM mercaptoethanol, 100 U/mL penicillin and 100 μg/mL streptomycin. The cultured neurons were maintained in a humidified incubator at 37 °C with 5% CO2 for 7 days prior to use.
as §1

In the next test the test system is U87-MG cells. In words: Intracellular Ca2+ mobilization by Gq-coupled receptor agonists (FLIPR, Fluo-4), U87-MG. It is filed as cell-based, human. To be noted: U87-MG, FLIPR, Fluo-4, 3 min, n = 3. As for the experimental part: as §1
The next test deals with STAT3 in SK-N-MC cells. In words: STAT3 Tyr705 phosphorylation in SK-N-MC by conditioned media from agonist-treated U87-MG. It is filed as cell-based, human. To be noted: U87-MG treated with bombesin 1 μM, bradykinin 1 μM or histamine 10 μM, 24 h; media on SK-N-MC 15 min. How it is done: These conditioned media were either immediately applied to SK-N-SH/SK-N-MC cells (80–100% confluence) in 6-well plates for 15 min, or subjected to heat treatment on a 96 °C heat block for 5 min, and then cooled to 37 °C before they were applied to the SK-N-SH/SK-N-MC cells for 15 min. […] For the SK-N-MC-derived conditioned media, SK-N-MC cells (80–100% confluence) in a 10 cm culture dish were serum-starved in 10 mL of MEM (without FBS), with 1 mL of the resulting conditioned medium being collected at indicated time points (15 min, 1 h, 3 h, 6 h). Simultaneously, U87-MG cells (80–100% confluence) in 12-well plates were serum-starved in MEM for 6 h, followed by pretreatment of […] (5 μM, 15 min), and then challenged with the SK-N-MC-derived conditioned media (mentioned above) for 10 min before cell lysis. […]
SDS-PAGE and Western blotting were performed as described in our previous studies. […] The amount of protein in each sample was determined by detergent compatible (DC) protein assay according to the supplier’s instruction (Bio-Rad, Hercules, CA, USA). […] Resolved proteins were detected by specific primary antibodies and horseradish peroxidase-conjugated secondary antisera. The level of β-actin was determined as an internal control.

The subject of test [1] is B2R-mediated LIF secretion in U87-MG cells. In words: Inhibition of bradykinin-induced LIF production (ELISA), U87-MG. The test is classed as cell-based, human. The conditions noted are these: 10 μM inhibitor, 30 min pre-treatment, bradykinin 1 µM, 24 h. How it is done: Conditioned media were analyzed for the presence of multiple cytokines by using the cytokine multiplex assay kits (Merck Millipore, MA, USA) as previously described. Briefly, a bead mixture with various capture antibodies (50 μL) was added to a 96-well microtiter plate, followed by 50 μL of cytokine standard mix or test sample and then 25 μL of a biotinylated detection antibody mixture. The mixtures were incubated for 30 min at 25 °C with gentle shaking. Unbound antibodies were removed by three gentle washes. Finally, 50 μL of streptavidin–PE solution was added and incubated for another 30 min with gentle shaking. The detection beads were then washed again and resuspended in 120 μL of reading buffer. The Bio-Plex™ 200 system (Bio-Rad Laboratories, Hercules, CA, USA) with the Bio-Plex manager software (version 5.0) was utilized for signal detection and data analysis. Curve fitting was applied to each standard curve according to the manufacturer’s manual and sample concentrations were interpolated from the standard curves. Individual detections for LIF and IL-6 were performed using the corresponding ELISA kits from Abcam (Cambridge, UK) according to the manufacturer’s instructions.
The resulting Ca^2+ signal profiles were monitored by FLIPR for 3 min.

Test [2] deals with STAT3 in primary mouse astrocytes. In words: STAT3 phosphorylation by direct application of cytokine, primary astrocytes. It is filed as cell-based. The conditions noted are these: 0–100 ng/mL, 15 min, n = 3. How it is done: To determine if the experimental cells were readily responsive to LIF and IL-6, SK-N-MC cells, mouse primary neurons and primary astrocytes (80–100% confluence in 12-well plates) were serum-starved for 6 h, followed by treatment of indicated concentrations (0–100 ng/mL) of LIF and IL-6 for 15 min. The subsequent cell lysates were subjected to SDS-PAGE and Western blot with specific antibodies to detect stimulatory phosphorylated forms and the total amounts of STAT3.
SDS-PAGE and Western blotting were performed as described in our previous studies. In brief, cells in 6-well plates (5 × 10^5 cells/well) were lysed in 500 μL of ice-cold lysis buffer (50 mM Tris-HCl at pH 7.5 containing 100 mM NaCl, 5 mM EDTA, 40 mM NaP2O7, 1% Triton X-100, 1 mM dithiothreitol, 200 μM Na3VO4, 100 μM phenylmethylsulfonyl fluoride, 2 μg/mL leupeptin, 4 μg/mL aprotinin, and 0.7 μg/mL pepstatin) and then gently shaken for 30 min. The amount of protein in each sample was determined by detergent compatible (DC) protein assay according to the supplier’s instruction (Bio-Rad, Hercules, CA, USA). Clarified lysates (30 μg protein per sample) were resolved on 12% SDS-polyacrylamide gels and then transferred to nitrocellulose membranes (Westborough, MA, USA). Resolved proteins were detected by specific primary antibodies and horseradish peroxidase-conjugated secondary antisera. The level of β-actin was determined as an internal control. Immunoblots were visualized by chemiluminescence with the WesternBright ECL reagents from Advansta (San Jose, CA, USA). Chemiluminescence signals were then detected by ChemiDoc imaging systems (Bio-Rad, Hercules, CA, USA) with the subsequent band densities quantified by ImageJ (https://imagej.net/ij/) analysis software (National Institutes of Health, MD, USA). All primary antibodies which specifically recognize B1R, B2R, ERK, p-ERK, p38, p-p38, JNK, p-JNK, STAT3, p-STAT3, and β-actin were applied at 1:1000 dilution for Western blotting.

Where no end group is shown, it is not given here.

Turning to `CCCCCCCCCCCCC/C=C/[C@@H](O)[C@@H](N)COP(=O)(O)O` [sphingosine-1-phosphate], the “intracellular Ca2+ response” value in the test with 1321-N1 cells (1 μM agonist) and in the test on U87-MG cells (1 μM agonist) was “significantly stimulated intracellular Ca^2+ responses” in each case. Moreover, the “intracellular Ca2+ mobilization” value with primary astrocytes (1 μM agonist) is “significantly stimulated Ca^2+ mobilization”.
In the case of `CCCCC[C@H](O)/C=C/[C@H]1[C@H](O)CC(=O)[C@@H]1C/C=C\CCCC(=O)O` [prostaglandin E2], the “intracellular Ca2+ mobilization” value in the test on primary astrocytes (1 μM agonist) is reported as “significantly stimulated Ca^2+ mobilization”.
Take `CNC[C@H](O)c1cccc(O)c1` [phenylephrine]: in the test with primary astrocytes (10 μM agonist), the “intracellular Ca2+ mobilization” value is “significantly stimulated Ca^2+ mobilization”.
In the case of `NCCc1c[nH]c2ccc(O)cc12` [serotonin], the “intracellular Ca2+ response” value in the test on 1321-N1 cells (10 μM agonist) and in the test with U87-MG cells (10 μM agonist) was “could not trigger the activity” in each case.
As to bombesin, the “intracellular Ca2+ response” value in the test on 1321-N1 cells (1 μM agonist) and in the test with U87-MG cells (1 μM agonist) was “significantly stimulated intracellular Ca^2+ responses” each time. In the test with primary astrocytes (1 μM agonist), the “intracellular Ca2+ mobilization” value is “significantly stimulated Ca^2+ mobilization”. Moreover, the “STAT3 Tyr705 phosphorylation by conditioned media” value in the test on STAT3 in SK-N-MC cells is recorded as “sometimes failed to induce STAT3 phosphorylation”.
With `CN(C)S(=O)(=O)c1ccc2c(c1)/C(=C/c1cc3c([nH]1)CCCC3)C(=O)N2` [SU6656], the “inhibition of bradykinin-induced LIF secretion by protein kinase inhibitors” value (from here on “inhibition”) in test [1] is on record as “found to require”.
As for `COc1cccc(-c2cc(=O)c3ccccc3o2)c1N` [PD98059], the “inhibition” value in test [1] is “found to require”.
Regarding `N[C@@H](CCC(=O)O)C(=O)O` [glutamate], the “intracellular Ca2+ mobilization” value in the test with primary astrocytes (1 μM agonist) is listed as “significantly stimulated Ca^2+ mobilization”.
For the compound `Cn1c2ccccc2c2c3c(c4c5ccccc5n(CCC#N)c4c21)CNC3=O` [Go6976], the “inhibition” value in test [1] is “Partial inhibition of LIF secretion”.
With neurotensin, the “intracellular Ca2+ response” value in the test on 1321-N1 cells (1 μM agonist) and in the test on U87-MG cells (1 μM agonist) was “could not trigger the activity” in each case.
For the compound `C[S+]([O-])c1ccc(-c2nc(-c3ccncc3)c(-c3ccc(F)cc3)[nH]2)cc1` (stereo not drawn) [SB203580], the “inhibition” value in test [1] is reported as “found to require”.
For the compound `Nc1ncnc2c1ncn2[C@@H]1O[C@H](COP(=O)(O)OP(=O)(O)OP(=O)(O)O)[C@@H](O)[C@H]1O` [ATP], the “intracellular Ca2+ response” value with 1321-N1 cells (1 μM agonist) is recorded as “did not respond to ATP for triggering Ca^2+ transients”; with U87-MG cells (1 μM agonist), “effective in U87-MG cells”. Besides, in the test with primary astrocytes (1 μM agonist), the “intracellular Ca2+ mobilization” value is listed as “significantly stimulated Ca^2+ mobilization”.
“neuromedin U25 (FRVDEEFQSPFASQSRGYFLFRPRN; ends and bridges not checked; UniProt P48645 142-166, looked up)”: in the test on U87-MG cells (1 μM agonist), the “intracellular Ca2+ response” value is given as “effective in U87-MG cells”.
Take interleukin-6 [IL-6]: the STAT3 phosphorylation entry in test [2] is recorded as “significant stimulatory phosphorylation of STAT3”.
For endothelin, the “intracellular Ca2+ response” value with 1321-N1 cells (100 nM agonist) is “elicited Ca^2+ responses in 1321-N1 cells”. Further, the “intracellular Ca2+ mobilization” value in the test on primary astrocytes (100 nM agonist) is recorded as “significantly stimulated Ca^2+ mobilization”.
Turning to `Oc1c2ccccc2c2c3c(cccc13)N=N2` [SP600125], the “inhibition” value in test [1] was “partially inhibited bradykinin-induced LIF secretion”.
As for neurokinin B, the “intracellular Ca2+ mobilization” value with primary astrocytes (1 μM agonist) is listed as “significantly stimulated Ca^2+ mobilization”.
Take oxytocin: the “intracellular Ca2+ mobilization” value in the test with primary astrocytes (1 μM agonist) was “significantly stimulated Ca^2+ mobilization”. Further, the “intracellular Ca2+ response” value in the test on U87-MG cells (1 μM agonist) was “effective in U87-MG cells”.
On to “angiotensin II (DRVYIHPF; Angiotensin-2; UniProt P01019 25-32, looked up)”, for which the “intracellular Ca2+ response” value with U87-MG cells (1 μM agonist) is listed as “effective in U87-MG cells”.

The record behind these values is publication PMC11642044 (International Journal of Molecular Sciences, 2024).
